According to patent US10273229B2, “N-substituted 4-aminoquinazoline derivatives and methods of use” (priority 2014, dated 2019):

Columns and labels:
[1] = target: T1, CYP3A4 (Homo sapiens, UniProt P08684); conditions: in words; for CYP3A4 inhibitor potency after preincubation with the test compound, compared with lapatinib: time dependent arm
[2] = target: Syk (Homo sapiens, UniProt P43405); experiment: Syk kinase inhibition (Table 1)
[3] = target: T2, EGFR (Homo sapiens, UniProt P00533); experiment: EGFR kinase inhibition (Table 1)
[4] = target: ErbB4 (Homo sapiens, UniProt Q15303); experiment: ErbB4 kinase inhibition (Table 1); type: biochemical
[5] = target: T1, CYP3A4
[6] = target: T3, human ErbB2 (Homo sapiens, UniProt P04626); experiment: ErbB2 kinase assay, FRET peptide substrate (Example 3); type: biochemical; conditions: ErbB2 or EGFR (either kinase); in words
Description: Kinase assays were performed using standard protocols known to those skilled in the art. In brief, kinase, peptide substrate labeled with both coumarin (donor fluorophore) and fluorescein (acceptor fluorophore), ATP, and test compound are incubated together in a kinase reaction buffer. Typically, the reaction was stopped by development reagent (protease) with certain dilution factor after 2 hours. The plate was analyzed in Perkin Elmer Envision by FRET mode. The high ratio of coumarin/fluorescein represents 0% phosphorylation rate while low ratio of coumarin/fluorescein represents 100% phosphorylation rate.

[7] = target: T2, EGFR; experiment: EGFR kinase assay at RBC, 33P-ATP filter binding (Example 5); type: biochemical; conditions: in words
Description: The synthesis and biochemical testing of these compounds was completed using alternate CROs as a control for characterizing compounds. Kinase assays were performed at RBC using standard protocols known to those skilled in the art. In brief, kinase, any required cofactors, substrate in DMSO, and kinase reaction mixture (by acoustic technology; Echo 550; nanoliter range) were incubated for 20 minutes at room temperature. 33P-ATP was added to initiate the reaction, which was incubated for 2 hours at room temperature.

[8] = target: T3, human ErbB2; experiment: ErbB2 kinase assay at RBC, 33P-ATP filter binding (Example 5); type: biochemical; conditions: in words
Description: The synthesis and biochemical testing of these compounds was completed using alternate CROs as a control for characterizing compounds.
Kinase assays were performed at RBC using standard protocols known to those skilled in the art. In brief, kinase, any required cofactors, substrate in DMSO, and kinase reaction mixture (by acoustic technology; Echo 550; nanoliter range) were incubated for 20 minutes at room temperature. 33P-ATP was added to initiate the reaction, which was incubated for 2 hours at room temperature.

[9] = tested on: NCI-N87 cells; experiment: Cytotoxicity against NCI-N87 cells, CellTiter 96 (Example 4); type: cell-based; conditions: in words
Description: (§1) All of the test compounds were kept between 4° C. to 8° C. in solid form or as solution in DMSO. The cell lines BT-474 and NCI-N87 were obtained from the ATCC. The cell lines were maintained in liquid nitrogen. Cell lines were prepared by thawing a 1 mL vial of the cell line and splitting it into two T-75 flasks with 10 mL of the appropriate media. BT-474 and NCI-N87 both utilized RPMI 1640 with varying glucose content (1 g/L for BT-474 and 4.5 g/L for NCI-N87). The cell lines were trypsinized and split into two T-150 flasks each time the cell lines reached 70-90% confluency. When there were at least two confluent T-150 flasks of cell lines available, cultures were trypsinized and the cells enumerated using a hemocytometer and added to a 96-well microtiter plate at 1.5×10^5 cells/mL. The 96-well plates were then incubated at 37° C. with 5% CO2 for 24 hours to allow enough time for the cells to adhere to the wells. […] Lapatinib and media without the test compounds were used as controls. All 96-well plates were incubated at 37° C. with 5% CO2 for 3 days with plates containing BT-474 and for 6 days with plates containing NCI-N87. […] After recovery, cell viability was determined using the CellTiter 96® Aqueous One Solution Cell Proliferation Assay kit (Promega). The optical density (OD) was read using a SPECTRAMAX® M5 Microplate Reader (Molecular Devices) at 490 nm. […]

[10] = tested on: BT-474 cells; experiment: Cytotoxicity against BT-474 cells, CellTiter 96 (Example 4); type: cell-based, human; conditions: in words
Description: as §1

[11] = tested on: BT-474 cells; experiment: Cytotoxicity against BT-474 cells at RBC, Cell Titer-Glo 2.0 (Example 6); type: cell-based, human; conditions: in words
Description: All of the test compounds were kept between 4° C. to 8° C. in solid form or as solution in DMSO. The cell line BT-474 was obtained from the ATCC. Test compounds were dissolved in DMSO (10 mM stock). Cell Titer-Glo® 2.0 Luminescent cell viability assay reagent was obtained from Promega. BT474 human breast cancer cell line was grown in Hybri-care medium supplemented with 1.5 g/L sodium bicarbonate and 10% FBS. 100 μg/ml penicillin and 100 μg/ml streptomycin were added to all culture media. Cultures were maintained at 37° C. in a humidified atmosphere of 5% CO2 and 95% air. Test compounds in DMSO were added in a source plate. 25 nL of test compounds was delivered from the source plate to each well of the 384-well cell culture plates by Echo 550. 25 μl of culture medium containing 1000 cells for each cell line was added to the wells of the cell culture plates. […] The contents were mixed on an orbital shaker for 2 minutes and incubated at room temperature for 10 minutes to stabilize luminescent signal Luminescence was recorded by Envision 2104 Multilabel Reader (Perkin Elmer). The number of viable cells in culture was determined based on quantization of the ATP present in each culture well. The IC50 values were calculated and the IC50 curves were plotted using the GraphPad Prism 4 program based on a sigmoidal dose-response equation.

T1 sequence (P08684 whole entry): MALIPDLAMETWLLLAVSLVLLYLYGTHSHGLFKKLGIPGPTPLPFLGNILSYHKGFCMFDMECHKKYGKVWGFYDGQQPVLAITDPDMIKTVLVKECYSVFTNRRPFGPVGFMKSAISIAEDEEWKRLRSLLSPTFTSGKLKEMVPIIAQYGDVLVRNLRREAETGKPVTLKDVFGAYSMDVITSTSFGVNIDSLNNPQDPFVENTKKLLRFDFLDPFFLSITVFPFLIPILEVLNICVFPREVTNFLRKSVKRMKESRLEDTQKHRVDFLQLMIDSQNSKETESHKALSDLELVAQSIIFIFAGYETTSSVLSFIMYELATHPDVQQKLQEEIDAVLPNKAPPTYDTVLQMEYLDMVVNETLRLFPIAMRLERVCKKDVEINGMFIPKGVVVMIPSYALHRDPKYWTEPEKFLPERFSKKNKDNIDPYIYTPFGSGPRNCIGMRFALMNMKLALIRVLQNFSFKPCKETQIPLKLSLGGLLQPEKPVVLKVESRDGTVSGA
T3 sequence (P04626 23-1255): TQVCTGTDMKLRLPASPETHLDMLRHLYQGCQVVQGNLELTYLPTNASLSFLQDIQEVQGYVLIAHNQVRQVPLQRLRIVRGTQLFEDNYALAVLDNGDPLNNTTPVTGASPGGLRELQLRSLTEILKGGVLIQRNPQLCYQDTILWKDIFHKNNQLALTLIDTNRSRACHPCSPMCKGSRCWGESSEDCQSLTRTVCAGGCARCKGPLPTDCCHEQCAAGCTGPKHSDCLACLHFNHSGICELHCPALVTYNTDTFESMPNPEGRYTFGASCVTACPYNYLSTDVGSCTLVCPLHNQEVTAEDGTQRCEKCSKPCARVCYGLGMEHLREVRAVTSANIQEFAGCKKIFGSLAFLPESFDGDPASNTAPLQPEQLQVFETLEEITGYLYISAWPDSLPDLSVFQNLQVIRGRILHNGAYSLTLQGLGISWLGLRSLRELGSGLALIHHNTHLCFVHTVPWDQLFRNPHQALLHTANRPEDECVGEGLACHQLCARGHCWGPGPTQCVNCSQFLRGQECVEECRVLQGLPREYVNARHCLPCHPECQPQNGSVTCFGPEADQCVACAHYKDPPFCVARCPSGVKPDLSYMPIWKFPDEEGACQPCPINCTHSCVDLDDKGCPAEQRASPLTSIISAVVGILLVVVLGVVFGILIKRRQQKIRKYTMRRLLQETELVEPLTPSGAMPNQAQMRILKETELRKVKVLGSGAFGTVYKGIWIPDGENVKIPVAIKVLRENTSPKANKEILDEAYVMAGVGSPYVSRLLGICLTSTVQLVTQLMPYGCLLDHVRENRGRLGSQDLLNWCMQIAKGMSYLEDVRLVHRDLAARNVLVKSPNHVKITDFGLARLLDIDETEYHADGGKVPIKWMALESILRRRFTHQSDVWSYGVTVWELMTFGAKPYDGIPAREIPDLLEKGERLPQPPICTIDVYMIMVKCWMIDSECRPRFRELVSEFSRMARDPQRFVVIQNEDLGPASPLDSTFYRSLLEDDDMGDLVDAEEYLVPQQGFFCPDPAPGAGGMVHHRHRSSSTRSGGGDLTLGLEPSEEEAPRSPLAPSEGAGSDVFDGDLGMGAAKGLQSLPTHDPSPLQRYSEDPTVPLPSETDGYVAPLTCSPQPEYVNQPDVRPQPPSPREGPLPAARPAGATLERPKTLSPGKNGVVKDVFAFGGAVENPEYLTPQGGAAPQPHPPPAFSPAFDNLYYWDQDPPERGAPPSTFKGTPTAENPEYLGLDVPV
T2 sequence (P00533 25-1210): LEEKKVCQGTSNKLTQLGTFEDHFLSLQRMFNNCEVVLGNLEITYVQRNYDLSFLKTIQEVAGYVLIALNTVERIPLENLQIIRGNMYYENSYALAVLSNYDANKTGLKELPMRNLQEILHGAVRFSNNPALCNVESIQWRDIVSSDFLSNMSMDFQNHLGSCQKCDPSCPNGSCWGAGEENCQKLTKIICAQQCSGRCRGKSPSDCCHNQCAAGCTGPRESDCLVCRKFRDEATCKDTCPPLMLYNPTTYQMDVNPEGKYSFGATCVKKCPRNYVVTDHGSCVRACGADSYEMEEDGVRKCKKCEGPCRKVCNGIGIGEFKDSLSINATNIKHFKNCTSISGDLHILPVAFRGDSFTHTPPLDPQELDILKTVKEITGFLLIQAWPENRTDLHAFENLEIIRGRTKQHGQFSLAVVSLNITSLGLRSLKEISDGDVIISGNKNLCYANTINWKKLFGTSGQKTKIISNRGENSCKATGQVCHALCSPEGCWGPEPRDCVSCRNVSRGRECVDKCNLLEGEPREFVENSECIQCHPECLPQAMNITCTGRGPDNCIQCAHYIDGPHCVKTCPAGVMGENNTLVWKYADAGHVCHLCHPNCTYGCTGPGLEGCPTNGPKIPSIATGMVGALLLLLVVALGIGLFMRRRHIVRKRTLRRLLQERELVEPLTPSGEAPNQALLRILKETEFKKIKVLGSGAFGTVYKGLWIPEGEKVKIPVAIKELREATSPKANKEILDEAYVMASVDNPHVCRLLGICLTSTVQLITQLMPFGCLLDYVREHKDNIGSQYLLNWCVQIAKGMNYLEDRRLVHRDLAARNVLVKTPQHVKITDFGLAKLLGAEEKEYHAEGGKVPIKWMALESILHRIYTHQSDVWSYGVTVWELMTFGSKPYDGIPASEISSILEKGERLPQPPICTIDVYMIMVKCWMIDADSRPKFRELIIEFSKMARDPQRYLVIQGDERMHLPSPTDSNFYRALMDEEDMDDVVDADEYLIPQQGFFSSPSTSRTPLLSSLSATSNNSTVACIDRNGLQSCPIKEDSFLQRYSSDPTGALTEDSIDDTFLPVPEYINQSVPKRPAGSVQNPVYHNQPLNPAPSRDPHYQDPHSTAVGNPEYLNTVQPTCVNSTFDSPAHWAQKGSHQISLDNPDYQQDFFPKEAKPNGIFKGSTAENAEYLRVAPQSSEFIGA
Sequence of ErbB4 (Q15303 26-1308, species assumed): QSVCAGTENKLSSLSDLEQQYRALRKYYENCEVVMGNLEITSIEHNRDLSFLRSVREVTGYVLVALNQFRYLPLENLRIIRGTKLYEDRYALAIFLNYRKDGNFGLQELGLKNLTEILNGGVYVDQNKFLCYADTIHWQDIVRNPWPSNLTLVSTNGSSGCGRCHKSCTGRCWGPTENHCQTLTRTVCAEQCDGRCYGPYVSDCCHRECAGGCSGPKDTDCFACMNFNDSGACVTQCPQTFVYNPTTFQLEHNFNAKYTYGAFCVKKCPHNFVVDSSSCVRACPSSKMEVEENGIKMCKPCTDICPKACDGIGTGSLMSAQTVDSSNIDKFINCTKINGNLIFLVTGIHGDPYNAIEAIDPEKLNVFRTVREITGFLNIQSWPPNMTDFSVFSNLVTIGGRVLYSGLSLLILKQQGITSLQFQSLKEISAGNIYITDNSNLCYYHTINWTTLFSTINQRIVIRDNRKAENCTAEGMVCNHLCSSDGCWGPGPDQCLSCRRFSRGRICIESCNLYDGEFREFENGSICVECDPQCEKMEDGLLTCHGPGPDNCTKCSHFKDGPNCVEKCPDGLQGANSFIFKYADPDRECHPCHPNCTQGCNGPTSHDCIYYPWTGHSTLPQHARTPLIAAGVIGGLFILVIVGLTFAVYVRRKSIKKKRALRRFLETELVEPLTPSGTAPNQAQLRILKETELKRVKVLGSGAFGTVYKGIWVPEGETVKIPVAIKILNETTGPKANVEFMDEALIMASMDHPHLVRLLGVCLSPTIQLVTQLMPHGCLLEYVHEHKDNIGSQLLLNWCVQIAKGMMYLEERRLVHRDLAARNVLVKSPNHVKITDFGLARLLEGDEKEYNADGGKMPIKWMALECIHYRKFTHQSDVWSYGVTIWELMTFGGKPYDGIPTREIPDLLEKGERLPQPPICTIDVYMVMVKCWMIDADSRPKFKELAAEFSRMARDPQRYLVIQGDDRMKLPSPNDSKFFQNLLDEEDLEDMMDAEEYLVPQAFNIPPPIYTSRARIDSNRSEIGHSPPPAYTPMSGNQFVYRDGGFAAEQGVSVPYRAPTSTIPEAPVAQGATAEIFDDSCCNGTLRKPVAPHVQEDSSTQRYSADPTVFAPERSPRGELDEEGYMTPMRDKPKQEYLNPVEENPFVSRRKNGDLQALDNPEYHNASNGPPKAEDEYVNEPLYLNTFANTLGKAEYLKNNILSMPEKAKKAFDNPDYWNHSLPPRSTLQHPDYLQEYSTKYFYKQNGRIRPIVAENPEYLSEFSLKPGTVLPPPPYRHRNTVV

Structure (SMILES) | CYP3A4 inhibitor potency compared with lapatinib [1] | CYP3A4 inhibitor potency after preincubation with the test compound, compared with lapatinib [1] | Ratio IC50:TD*** [5] | inhibition of ErbB2 or EGFR, potency compared with lapatinib [6] | other results
CN(C)C(=O)ON(CCS(C)(=O)=O)Cc1ccc(-c2ccc3ncnc(Nc4ccc(OCc5cccc(F)c5)c(Cl)c4)c3c2)o1 [Compound 4] | less potent | less potent |  |  | 
CS(=O)(=O)CCN(O)Cc1ccc(-c2ccc3ncnc(Nc4ccc(OCc5cccc(F)c5)c(Cl)c4)c3c2)o1 [Compound 2] |  |  |  |  | IC50 [2]: > 10 µM; IC50 [3]: 0.072 µM; IC50 [4]: 0.032 µM
COC(=O)ON(CCS(C)(=O)=O)Cc1ccc(-c2ccc3ncnc(Nc4ccc(OCc5cccc(F)c5)c(Cl)c4)c3c2)o1 [Compound 5] |  |  | ++ | better potency than lapatinib | 
CS(=O)(=O)CCN(CC(=O)O)Cc1ccc(-c2ccc3ncnc(Nc4ccc(OCc5cccc(F)c5)c(Cl)c4)c3c2)o1 [Compound 6] | less potent | less potent | +++ | better potency than lapatinib | EGFR inhibition potency compared with lapatinib [7]: better potency than lapatinib; ErbB2 inhibition potency compared with lapatinib [8]: better potency than lapatinib
CS(=O)(=O)CCN(Cc1ccc(-c2ccc3ncnc(Nc4ccc(OCc5cccc(F)c5)c(Cl)c4)c3c2)o1)S(C)(=O)=O [Compound 7] | less potent | less potent | ++ | better potency than lapatinib | NCI-N87 IC50 compared with lapatinib [9]: lower than those observed for lapatinib; BT-474 IC50 compared with lapatinib [10]: lower than those observed for lapatinib
CS(=O)(=O)CCN(Cc1ccc(-c2ccc3ncnc(Nc4ccc(OCc5cccc(F)c5)c(Cl)c4)c3c2)o1)C1COC1 [Compound 9] |  | less potent | +++ | better potency than lapatinib | NCI-N87 IC50 compared with lapatinib [9]: lower than those observed for lapatinib; BT-474 IC50 compared with lapatinib [10]: lower than those observed for lapatinib; BT-474 IC50 compared with lapatinib [11]: lower IC50 than lapatinib
CS(=O)(=O)CCN(Cc1ccc(-c2ccc3ncnc(Nc4ccc(OCc5cccc(F)c5)c(Cl)c4)c3c2)o1)C1CCC1 [Compound 10] | less potent | less potent | + | better potency than lapatinib | time dependent shift of CYP3A4 inhibition compared with lapatinib [1]: possible exception
CC(=O)N(CCS(C)(=O)=O)Cc1ccc(-c2ccc3ncnc(Nc4ccc(OCc5cccc(F)c5)c(Cl)c4)c3c2)o1 [Compound 8] |  | less potent |  | better potency than lapatinib | 
CS(=O)(=O)CCN(Cc1ccc(-c2ccc3ncnc(Nc4ccc(OCc5cccc(F)c5)c(Cl)c4)c3c2)o1)OC(N)=O [Compound 3] | less potent | less potent |  |  | 
